Patent US11834424B2, “Compounds useful as chaperone-mediated autophagy modulators” (ALBERT EINSTEIN COLLEGE OF MEDICINE, priority 2018, dated 2023)
Where “and” joins values, the source holds several entries; their conditions need not be identical. Equal entries are not always repeated. Where two headings read alike, the source gives them in different places.

Legend:
[1] = Pharmacokinetics (plasma and brain levels) in ICR (CD-1) mice; assay type: in vivo; conditions: i.v. 1 mg/kg, 1 mg/kg
Protocol: ICR (CD-1) male mice were fasted at least three horns and water was available ad libitum before the study. Animals were housed in a controlled environment, target conditions: temperature 18 to 29° C., relative humidity 30 to 70%. Temperature and relative humidity was monitored daily. An electronic time controlled lighting system was used to provide a 12 h light/12 h dark cycle. 3 mice for each indicated time point. ICR (CD-1) mice were administered CA77 at 1 mg/kg i.v. and 30 mg/kg p.o. or CA77.1 at 1 mg/kg i.v. (FIG. 2A) and 10 mg/kg p.o. (FIG. 2B). Three (3) mice were included in each dosage and time group. Mice were sacrificed and plasma and brains were obtained at 0.083, 0.25, 0.50, 1.0, 2.0, 4.0, 8.0, and 24.0 hours after administration and drug concentration determined using LC-MS/MS. Brains were removed, homogenized with a tissue homogenizer in cold 5% w/v BSA in phosphate buffer saline (PBS). A 100 microliter aliquots of brain samples were dispensed in to glass culture tubes and mixed with ethyl acetate (800 μl), vortexed, and centrifuged. The organic layer was transferred to a fresh culture tube, dried under nitrogen, and reconstituted in mobile phase for quantitation. Pharmacokinetic parameters were determined by standard methods using Phoenix WinNonlin 6.3 software.
Tables 3A and 3B provide the concentrations of CA77 in ICR (CD-1) mouse plasma (3A) and mouse brain (3B) following i.v. administration of 1 mg/kg CA77. Table 3C provides the brain/plasma ratio of CA77 following i.v. administration of 1 mg/kg CA77. Shaded cells indicate data not included in statistics due to aberrant value. BLQ=Below Limit of Quantitation.
Tables 5A and 5B provide the concentrations of CA77.1 in ICR (CD-1) mouse plasma (5A) and mouse brain (5B) following i.v. administration of 1 mg/kg CA77.1. Table 5C provides the brain/plasma ratio of CA77.1 following i.v. administration of 1 mg/kg CA77.1. The plasma and brain pharmacokinetic parameters for CA77.1 are provided in Table 6. *—cells contain data not present in the statistics.

[2] = test system: chaperone-mediated autophagy (CMA) in NIH 3T3 fibroblasts; assay: Photoswitchable KFERQ-Dendra CMA reporter assay in NIH 3T3 fibroblasts; assay type: cell-based
Protocol: The photoactivatable CMA reporter assay was constructed by inserting a sequence of 21 amino acid of Ribonuclease A bearing the CMA-targeting motif in the N-terminus multicloning site of the photoactivatable protein mCherryl or the photoswitchable protein Dendra 2.
NIH 3T3 fibroblasts were stably transduced with a photoconvertible CMA reporter, KFERQ-Dendra. were photoswitched by exposure to a […] (constant current) LED (Norlux, 405 nm) for 10 minutes and at the desired times fixed in 3% formaldehyde. Test cells were exposed to the indicated concentrations of the compounds for 12 hours (FIG. 3A) or 24 hours (FIG. 3B). Cells were imaged using high content microscopy (Operetta, Perkin Elmer) or by capturing images with an Axiovert 200 fluorescence microscope (Zeiss) with apotome and equipped with a 63/1.4 NA oil objective lens and red (ex. 570/30 nm, em. 615/30 nm), cyan (ex. 365/50 nm and em. 530/45 nm) and green (ex. 475/40 nm and em. 535/45 nm) filter sets (Chroma). Images were acquired with a high-resolution CCD camera after optical sectioning through the apotome. CMA activity measured as the average number of fluorescent puncta (CMA active lysosomes) per cell. Values are expressed relative to values in untreated cells that were assigned an arbitrary value of 1 and are mean of >2,500 cells counted per condition. The S.D. in all instances was <0.01% mean value. Table 2 provides a comparison of compounds CA39.1 and its comparative example CA39 and CA77.01 and its comparative example CA77.

In the case of `CC(=O)Nc1ccc(C2=Nc3ccc(Cl)cc3OC2)cc1` [CA77, reference compound], the “Conc. in brain, individual animal” value ([1]; mouse brain, 0.083 h) is reported as 2943 ng/g and *693 ng/g, the “Conc. in brain, individual animal” value ([1]; mouse brain, 0.25 h) is reported as 3391 ng/g and 5173 ng/g and 2397 ng/g and the “Conc. in brain, individual animal” value ([1]; mouse brain, 0.50 h) is reported as 2795 ng/g and 2950 ng/g. For the same compound, the “Conc. in brain, individual animal” value ([1]; mouse brain, 1.00 h) was 2651 ng/g and 2154 ng/g, the “Conc. in brain, individual animal” value ([1]; mouse brain, 2.00 h) was 411 ng/g and 792 ng/g and the “Conc. in brain, individual animal” value ([1]; mouse brain, 4.00 h) was 112 ng/g and 124 ng/g. The “Conc. in brain, individual animal” value ([1]; mouse brain, 8.00 h) was 7.74 ng/g and 27.5 ng/g and 41.4 ng/g, the “Conc. in brain, individual animal” value ([1]; mouse brain, 24.0 h) was 2.68 ng/g and 4.25 ng/g and 2.07 ng/g and the “Conc. in plasma, individual animal” value ([1]; mouse plasma, 0.083 h) was 41.4 ng/mL and *14 ng/mL. The “Conc. in plasma, individual animal” value ([1]; mouse plasma, 0.25 h) was 27.2 ng/mL and 43.9 ng/mL and 19.5 ng/mL, the “Conc. in plasma, individual animal” value ([1]; mouse plasma, 0.50 h) was 14.6 ng/mL and 21.9 ng/mL and the “Conc. in plasma, individual animal” value ([1]; mouse plasma, 1.00 h) was 21.5 ng/mL and 15.3 ng/mL. For the same compound, the “Conc. in plasma, individual animal” value ([1]; mouse plasma, 2.00 h) was 7.54 ng/mL and 1.71 ng/mL and 3.84 ng/mL, the “Conc. in plasma, individual animal” value ([1]; mouse plasma, 4.00 h) was “BLQ and 0.533 ng/mL” and the “Brain/Plasma ratio, individual animal” value ([1]; mouse, 0.083 h) was 71.1 and *48.9. For the same compound, the “Brain/Plasma ratio, individual animal” value ([1]; mouse, 0.25 h) was 118 and 123, the “Brain/Plasma ratio, individual animal” value ([1]; mouse, 0.50 h) was 192 and 135 and the “Brain/Plasma ratio, individual animal” value ([1]; mouse, 1.00 h) was 123 and 141. The “Brain/Plasma ratio, individual animal” value ([1]; mouse, 2.00 h) was 102 and 240 and 206, the “Brain/Plasma ratio, individual animal” value ([1]; mouse, 4.00 h) was 232 and the concentration at 0.083 h ([1]; male, ICR (CD-1), mouse, brain, iv, mouse brain, 0.083 h, read-out: Conc. in brain, Mean) was 3360 ng/g. For the same compound, the concentration at 0.083 h ([1]; male, ICR (CD-1), mouse, brain, iv, mouse brain, 0.083 h, read-out: Conc. in brain, individual animal) was 3770 ng/g, the concentration at 0.25 h ([1]; male, ICR (CD-1), mouse, brain, iv, mouse brain, 0.25 h, read-out: Conc. in brain, Mean) was 3650 ng/g and the concentration at 0.5 h ([1]; male, ICR (CD-1), mouse, brain, iv, mouse brain, 0.50 h, read-out: Conc. in brain, Mean) was 2650 ng/g. For the same compound, the concentration at 0.5 h ([1]; male, ICR (CD-1), mouse, brain, iv, mouse brain, 0.50 h, read-out: Conc. in brain, individual animal) was 2200 ng/g, the concentration at 1 h ([1]; male, ICR (CD-1), mouse, brain, iv, mouse brain, 1.00 h, read-out: Conc. in brain, Mean) was 2460 ng/g and the concentration at 1 h ([1]; male, ICR (CD-1), mouse, brain, iv, mouse brain, 1.00 h, read-out: Conc. in brain, individual animal) was 2760 ng/g. It also gave a concentration at 2 h ([1]; male, ICR (CD-1), mouse, brain, iv, mouse brain, 2.00 h, read-out: Conc. in brain, Mean) of 659 ng/g, a concentration at 2 h ([1]; male, ICR (CD-1), mouse, brain, iv, mouse brain, 2.00 h, read-out: Conc. in brain, individual animal) of 773 ng/g and a concentration at 4 h ([1]; male, ICR (CD-1), mouse, brain, iv, mouse brain, 4.00 h, read-out: Conc. in brain, Mean) of 104 ng/g. It also gave a concentration at 4 h ([1]; male, ICR (CD-1), mouse, brain, iv, mouse brain, 4.00 h, read-out: Conc. in brain, individual animal) of 76 ng/g, a concentration at 8 h ([1]; male, ICR (CD-1), mouse, brain, iv, mouse brain, 8.00 h, read-out: Conc. in brain, Mean) of 25.6 ng/g and a concentration at 24 h ([1]; male, ICR (CD-1), mouse, brain, iv, mouse brain, 24.0 h, read-out: Conc. in brain, Mean) of 3 ng/g. It also gave a Kp at 0.083 h ([1]; male, ICR (CD-1), mouse, brain/plasma, iv, mouse, 0.083 h, read-out: Brain/Plasma ratio, Mean) of 71.2, a Kp at 0.083 h ([1]; male, ICR (CD-1), mouse, brain/plasma, iv, mouse, 0.083 h, read-out: Brain/Plasma ratio, individual animal) of 71.3 and a Kp at 0.25 h ([1]; male, ICR (CD-1), mouse, brain/plasma, iv, mouse, 0.25 h, read-out: Brain/Plasma ratio, Mean) of 122. It also gave a Kp at 0.25 h ([1]; male, ICR (CD-1), mouse, brain/plasma, iv, mouse, 0.25 h, read-out: Brain/Plasma ratio, individual animal) of 125, a Kp at 0.5 h ([1]; male, ICR (CD-1), mouse, brain/plasma, iv, mouse, 0.50 h, read-out: Brain/Plasma ratio, Mean) of 151 and a Kp at 0.5 h ([1]; male, ICR (CD-1), mouse, brain/plasma, iv, mouse, 0.50 h, read-out: Brain/Plasma ratio, individual animal) of 128. For the same compound, the Kp at 1 h ([1]; male, ICR (CD-1), mouse, brain/plasma, iv, mouse, 1.00 h, read-out: Brain/Plasma ratio, Mean) was 159, the Kp at 1 h ([1]; male, ICR (CD-1), mouse, brain/plasma, iv, mouse, 1.00 h, read-out: Brain/Plasma ratio, individual animal) was 178 and the Kp at 2 h ([1]; male, ICR (CD-1), mouse, brain/plasma, iv, mouse, 2.00 h, read-out: Brain/Plasma ratio, Mean) was 183. It also gave a Kp at 4 h ([1]; male, ICR (CD-1), mouse, brain/plasma, iv, mouse, 4.00 h, read-out: Brain/Plasma ratio, Mean) of 210, a Kp at 4 h ([1]; male, ICR (CD-1), mouse, brain/plasma, iv, mouse, 4.00 h, read-out: Brain/Plasma ratio, individual animal) of 188 and a concentration at 0.083 h ([1]; male, ICR (CD-1), mouse, plasma, iv, mouse plasma, 0.083 h, read-out: Conc. in plasma, Mean) of 0.0471 µg/mL. For the same compound, the concentration at 0.083 h ([1]; male, ICR (CD-1), mouse, plasma, iv, mouse plasma, 0.083 h, read-out: Conc. in plasma, individual animal) was 0.0529 µg/mL, the concentration at 0.25 h ([1]; male, ICR (CD-1), mouse, plasma, iv, mouse plasma, 0.25 h, read-out: Conc. in plasma, Mean) was 0.0302 µg/mL and the concentration at 0.5 h ([1]; male, ICR (CD-1), mouse, plasma, iv, mouse plasma, 0.50 h, read-out: Conc. in plasma, Mean) was 0.0179 µg/mL. For the same compound, the concentration at 0.5 h ([1]; male, ICR (CD-1), mouse, plasma, iv, mouse plasma, 0.50 h, read-out: Conc. in plasma, individual animal) was 0.0172 µg/mL, the concentration at 1 h ([1]; male, ICR (CD-1), mouse, plasma, iv, mouse plasma, 1.00 h, read-out: Conc. in plasma, Mean) was 0.0154 µg/mL and the concentration at 1 h ([1]; male, ICR (CD-1), mouse, plasma, iv, mouse plasma, 1.00 h, read-out: Conc. in plasma, individual animal) was 0.0155 µg/mL. For the same compound, the concentration at 2 h ([1]; male, ICR (CD-1), mouse, plasma, iv, mouse plasma, 2.00 h, read-out: Conc. in plasma, Mean) was 0.00437 µg/mL, the concentration at 4 h ([1]; male, ICR (CD-1), mouse, plasma, iv, mouse plasma, 4.00 h, read-out: Conc. in plasma, Mean) was 0.000565 µg/mL and the concentration at 4 h ([1]; male, ICR (CD-1), mouse, plasma, iv, mouse plasma, 4.00 h, read-out: Conc. in plasma, individual animal) was 0.000597 µg/mL. The “CMA activity (fluorescent puncta per cell, relative to untreated cells = 1)” value ([2]; Time 5) was 2.667, the “CMA activity (fluorescent puncta per cell, relative to untreated cells = 1)” value ([2]; Time 10) was 3.331 and the “CMA activity (fluorescent puncta per cell, relative to untreated cells = 1)” value ([2]; Time 20) was 5.005. The “CMA activity (fluorescent puncta per cell, relative to untreated cells = 1)” value ([2]; Time 30) was 5.471.
